# Measured values from patent publication US11547682B2, “Use of formin agonists in overcoming brain tumor radio- and chemo-resistance by targeting tumor microtubes” (The University of Toledo, priority 2019, dated 2023).
# Columns and labels:
# [1] = test system: Pat9 HGG neurospheres; test: 3D matrigel invasion assay of patient-derived HGG neurospheres (Pat9); type: cell-based, human; settings: within 24 h; for neurosphere invasion (change in area over T0): 10-50 μM at embedding, refreshed daily, maintained through 48 h, relative to controls
# Experimental: Pat8 and Pat9 HGG neurospheres were embedded in matrigel and allowed to invade. […] Images were captured at embedding (T0) and every 24 h. Invasion area was calculated as increase in area over T0 Pat9 or Pat8 neurosphere areas (FIGS. 3A-3B, respectively). Both Pat9 and Pat8 neurospheres robustly invaded through 48 h, similar to control vehicle-treated neurospheres.
# It was previously shown in U87 spheroids that IMM invasion blockade was reversible. Whether IMM anti-invasion effects were reversible was assessed (FIGS. 4A-4B). Pat9 neurospheres were incubated with vehicle or IMMs for 48 h. Drug washouts were then performed with drug-free media and invasion continued for 48 h. As before, IMM removal released invasion suppression relative to neurospheres held in IMMs for 96 h. The live-dead cell dye Draq7 was then used on invading neurospheres treated with IMMs. […] Unexpectedly, when started at 48 h post-invasion in B27-treated control invading neurospheres, IMM treatment for 48 h thereafter induced robust cell death (FIG. 4C).
# (§1) Neurospheres formed spontaneously in isolated patient sample monolayer cells. Once spheres detach from monolayers, they were collected using wide-orifice pipette tips and moved to poly-HEMA (Sigma) coated U-bottom 96-well plates. Neurospheres were used upon reaching 200-250 μm diameter. Once neurospheres reached 350 μm, they were dissociated and re-plated in poly-HEMA U-bottom plates at 2000 cells/well.
# (§2) 3D invasion assays were as described. Briefly, a thin layer of 5 mg/ml GFR matrigel (Corning) was placed in 8-well chamber glasses (Lab-tek). Neurospheres were added and topped with thin-layer matrigel. Matrigel polymerized for 45 min at 37° C. before addition of 250 μl of media with IMMs. Invasions were imaged at time zero (T0) and every 24 h for experimental durations. Invaded spheroids/spontaneous neurospheres were imaged using an EVOS inverted microscope with an Olympus 4×UplanFL N0.13 PhP objective lens. All measurements were completed with MetaMorph software (Molecular Devices).
# [2] = test system: tumor microtubes (TMs) in Pat9 neurospheres; test: Tumor microtube (TM) formation and length in neurosphere edge cells (IF, Metamorph); type: cell-based, human; settings: for tumor TM length upon drug washout: 50 μM
# Experimental: FIGS. 6A-6E: Tumor microtube shortening and amoeboid cell morphologies in IMM-treated HGG patient-derived neurospheres. […] Left-most boxes indicate areas of magnification shown. Scale bar (upper panel)=25 μm; (lower panel 100 μm). FIGS. 6B-6C show tumor TM lengths were measured using Metamorph software from cell nuclei to tumor TM ends. TMs measured from N>196 cells across three replicate experiments. TMs were measured in control (FIG. 6B), or drug washout experiments using 50 μM IMM01 or IMM02 where m=maintained drug and r=washout (FIG. 6C). Data are shown as scatter plots in FIGS. 6B-6C, or histograms (FIGS. 6B′, 6C′). […] FIGS. 6D, 6D′ show cellular morphologies measured in neurosphere edge cells and EI were calculated by dividing cell long by short axes, where EI=1 is a rounded cell, and E>1 is an elongated cell. N>196 cells across three replicate experiments. Data are shown as scatter plots (FIG. 6D, 6E), or histograms (FIG. 6D′, FIG. 6E′).
# FIG. 11: Tumor TM measurements in HGG patient neurospheres. Pat9 neurospheres invaded for 96 h in matrigel in the presence of DMSO, 50 μM IMM01, or 50 μM IMM02. Tumor TMs were measured using Metamorph software by drawing lines (colored lines) along the length of tumor TMs from cell bodies to the end of the tumor TM using brightfield images.
# IF was performed on fixed Pat9 neurospheres treated with or without IMMs for 96 h (FIGS. 5A-5B, respectively). mDia1, mDia2, F-actin, β-tubulin, or de-tyrosinated β-tubulin (glu-tubulin) were visualized (to assess stabilized microtubules). Invaded control neurospheres had diffuse invasive fronts, with extensive symmetrical invasion away from the central neurosphere core. Both mDia1 and mDia2 were diffusely cytoplasmic. […] Some cells were enriched in traditional parallel lamellar actin stress fibers and others with numerous radial F-actin-enriched filopodia-like structures (FIG. 8). […]
# Cell protrusions were confirmed by IF to robustly express punctate Connexin-43 (FIG. 6A). […] Tumor TM length was measured in neurosphere edge cells in IMM-treated Pat9 neurospheres. […]
# [3] = test system: U251 monolayers; settings: 2D U251 monolayers; cited from earlier work
# [4] = test system: Pat8 HGG neurospheres; test: 3D matrigel invasion assay of patient-derived HGG neurospheres (Pat8); type: cell-based, human; settings: 10-50 μM at embedding, refreshed daily, within 24 h, maintained through 48 h, relative to controls
# Experimental: Pat8 and Pat9 HGG neurospheres were embedded in matrigel and allowed to invade. At embedding, neurospheres were treated with 10-50 μM IMM01 or IMM02 and refreshed daily. Images were captured at embedding (T0) and every 24 h. Invasion area was calculated as increase in area over T0 Pat9 or Pat8 neurosphere areas (FIGS. 3A-3B, respectively). Both Pat9 and Pat8 neurospheres robustly invaded through 48 h, similar to control vehicle-treated neurospheres.
# as §1
# as §2, with “All measurements were completed with MetaMorph software (Molecular Devices).” left out
# [5] = test system: mDia; settings: cited from earlier work
# [6] = test system: p53; settings: cited from earlier work
SMILES,neurosphere invasion ([1]; 1 μM),"tumor TM formation ([2]; 1 μM, within 24 h)","cell cycle progression, apoptosis/multi-nucleation [3]",neurosphere invasion (change in area over T0) [1],neurosphere invasion (change in area over T0) [4],mDia autoinhibition / F-actin polymerization [5],tumor TM length upon drug washout [2],p53 expression [6]
"COC(=O)Nc1nc2ccc(C(=O)c3cccs3)cc2[nH]1 [nocadazole, nocodazole, reference compound]",halted,halted,,,,,,
"C/C(=N\NC(=S)NC(C)(C)C)c1cc(F)cc(F)c1O [IMM02, N1-(tert-butyl)-2-[1-(3,5-difluoro-2-hydroxyphenyl)ethylidene]hydrazine-1-carbothioamide]",,,"neither changes in cell cycle progression, nor increases in apoptosis/multi-nucleation",significantly halted invasion,significantly halted invasion,relieved mDia autoinhibition to induce F-actin polymerization,recovered to controls,
"CC(C)(C)NC(=S)N/N=C/c1ccc(O)cc1O [IMM01, 2-[(2,4-dihydroxyphenyl)methylene]-N-(1,1-dimethylethyl)-hydrazinecarbothioamide]",,,"neither changes in cell cycle progression, nor increases in apoptosis/multi-nucleation",significantly halted invasion,significantly halted invasion,relieved mDia autoinhibition to induce F-actin polymerization,recovered to controls,
O=C1NC(=S)N(c2cccc(Br)c2)C(=O)/C1=C/c1ccco1 [SMIFH2],,,,,,,,downregulated p53 expression
